Measured values taken from patent US4731357A (Imperial Chemical Industries PLC, priority 1985, dated 1988).

Experiments:
[1] = system: acid secretion in the stomach; conditions: administered parenterally; known; cited from earlier work
[2] = system: sectioned Achilles tendon; assay: Graded doses of urogastrone on healing of sectioned Achilles tendons in rats (Example 2, FIGS. 3 and 4); type: in vivo, rat; conditions: 15 days after surgery
Description: The graded doses were injected twice daily into the immediate vicinity of the sectioned tendon.
FIG. 4 corresponds to FIG. 3, but represents graphically the collagen content of the repair lesions at the injected zone 15 days after surgery rather than the dry weight of the scar tissue formed at the said zone 15 days after surgery.
The rats employed were male Wistar rats (240 g) and the Achilles tendons were sectioned as described in Example 1.
Graded doses of urogastrone were given twice daily by injection into the immediate vicinity of the sectioned Achilles tendon in rats. […] FIGS. 3 and 4 present the dry weights and collagen contents respectively of the injected zones 15 days after surgery.

[3] = system: intact tendons; assay: Urogastrone 100 ug/kg injected twice daily into intact tendons in unoperated rats (Example 2); type: in vivo, rat; conditions: highest dose (100 ug./kg. twice daily); 15 days
[4] = system: Intact tendon; assay: Urogastrone injected twice daily into the corresponding region of the unoperated leg (intact tendon, group B, Table 1); type: in vivo, rat; conditions: for Collagen / DNA / dry wt: intact tendon plus urogastrone 20 μg./kg. twice daily, ±SEM
Description: (§1) Male Wistar rats (240 g.) were subjected under general anaesthesia to partial tendonotomy of the left Achilles tendon, the small skin wound was then sutured and the animals allowed to recover. […] Normal saline was injected into a control group of operated animals (group [C]). […] After termination the scar tissue was removed from the point of insertion into the calcaneus bone to the point of merger of the tendon into the muscle mass. Weights of the scar tissue were measured after drying and defatting as described in Greenwald, S. E. and Berry, C. L. Cardiovasc. Res. 12,364-372 (1978). The collagen content was obtained from hydroxyproline measurements as described in Grant, R. A. J. Clin. Path. 17, 685-686 (1964) on the tissue after proteolytic (see Smith, R. L., Gilberson, E., Koliatsu, N., Merchant, T. and Schurman, D. J. Analyst. Biochem. 103, 191-200 (1980)) and alkaline (see Huzar, G., Maiocco, J. and Naftolin, F. Analyt. Biochem. 105 424-439 (1980)) digestion. The DNA content of the digests was determined using a sensitive fluorimetric technique (as described in Hinegardner, R. T. Analyt. Biochem. 39, 197-201). The results are ±SEM and were analyzed by Student' s t test. Figures in parentheses indicate the numbers of animals used in each group.

[5] = system: sectioned Achilles tendons; assay: Longer term effects of urogastrone injections on healing of sectioned Achilles tendons in the rat (experiment 2, Table 2); type: in vivo; conditions: for Lesion DNA / Lesion dry wt / Lesion Collagen: ±SEM
Description: as §1

[6] = system: sectioned Achilles tendons; assay: Healing of sectioned Achilles tendons in the rat, urogastrone injected twice daily at the tendon lesion (experiment 1, Table 1); type: in vivo
Description: as §1

[7] = 30 days after surgery, urogastrone days 1-15 then 15 days without treatment, NS vs saline
[8] = 5 days after surgery, sectioned tendon, 20 μg./kg. twice daily at lesion, ±SEM, p < 0.001 vs saline
[9] = 9 days after surgery, sectioned tendon, 20 μg./kg. twice daily at lesion, ±SEM, p < 0.001 vs saline
[10] = first five days following surgery, statistically highly significant

For Urogastrone, the “Acid secretion in the stomach” value [1] is listed as “inhibit acid secretion in the stomach”, the “Collagen contents of the repair lesions” value ([2]; 20 μg./kg. twice daily) is listed as “not in the collagen contents” and the “Dry weights of the repair lesions” value ([2]; 20 μg./kg. twice daily) is listed as “statistically significant increase”. The “Collagen contents of the repair lesions” value ([2]; 50 μg./kg. twice daily) was “significantly increased”, the “Dry weights of the repair lesions” value ([2]; 50 μg./kg. twice daily) was “significantly increased” and the “Collagen contents of the repair lesions” value ([2]; 100 μg./kg. twice daily) was “significantly increased”. The “Dry weights of the repair lesions” value ([2]; 100 μg./kg. twice daily) was “significantly increased”, the Collagen contents [3] was “increased” and the Dry weight [3] was “increased”. It also gave a Collagen ([4]; 5 days, NS vs intact tendon) of 6.1 ± 0.3 mg, a DNA ([4]; 5 days, NS vs intact tendon) of 94.3 ± 8.5 µg and a dry wt ([4]; 5 days, NS vs intact tendon) of 12.7 ± 1.6 mg. It also gave a Collagen ([4]; 9 days, NS vs intact tendon) of 7.0 ± 0.5 mg, a dry wt ([4]; 9 days, NS vs intact tendon) of 14.1 ± 1.2 mg and a DNA ([4]; 9 days, p < 0.05 vs intact tendon) of 124 ± 10 µg. The Collagen ([4]; 15 days, NS vs intact tendon) was 7.0 ± 0.3 mg, the DNA ([4]; 15 days, NS vs intact tendon) was 101 ± 6 µg and the “Effect on unoperated tendon in the opposite leg” value ([4]; injected twice daily, throughout the treatment period, possible exception of increased DNA content after nine days) was “little or no effect”. For the same substance, the “Lesion DNA” value ([5]; 15 days after surgery, urogastrone days 1-15, 20 ug./kg. twice daily, NS vs saline) was 668 ± 32 µg, the Lesion dry wt ([5]; 15 days after surgery, urogastrone days 1-15, 20 ug./kg. twice daily, p < 0.001 vs saline) was 61.8 ± 1.3 mg and the “Lesion Collagen” value ([5]; 15 days after surgery, urogastrone days 1-15, 20 ug./kg. twice daily, p < 0.01 vs saline) was 28.1 ± 0.9 mg. For the same substance, the “Lesion Collagen” value [5, 7] was 28.7 ± 1.2 mg, the Lesion dry wt [5, 7] was 50.2 ± 1.1 mg and the “Lesion DNA” value ([5]; 30 days after surgery, urogastrone days 1-15 then 15 days without treatment, p < 0.05 vs saline) was 397 ± 17 µg. The “Lesion DNA” value ([5]; 30 days after surgery, urogastrone days 1-30, 20 ug./kg. twice daily, NS vs saline) was 495 ± 17 µg, the “Lesion Collagen” value ([5]; 30 days after surgery, urogastrone days 1-30, 20 ug./kg. twice daily, p < 0.001 vs saline) was 32.1 ± 1.3 mg and the Lesion dry wt ([5]; 30 days after surgery, urogastrone days 1-30, 20 ug./kg. twice daily, p < 0.01 vs saline) was 56.8 ± 2.0 mg. The “Dry weight and collagen content of the scars versus animals untreated throughout” value ([5]; dosing stopped after fifteen days, treatment free for a further fifteen days) was “no longer distinguishable”, the “Collagen content of repair lesion higher than saline-treated control lesions” value ([5]; thirty days on urogastrone) was 27% and the “DNA contents of urogastrone versus saline-treated lesions” value ([5]; thirty days on urogastrone) was “essentially the same”. The “Dry weight of repair lesion higher than saline-treated control lesions” value ([5]; thirty days on urogastrone) was 19%, the “Lesion DNA” value [6, 8] was 517 ± 12 µg and the Lesion dry wt [6, 8] was 42.9 ± 2.0 mg. For the same substance, the “Lesion DNA” value [6, 9] was 653 ± 20 µg, the Lesion dry wt [6, 9] was 61.1 ± 2.0 mg and the “Lesion Collagen” value ([6]; 9 days after surgery, sectioned tendon, 20 μg./kg. twice daily at lesion, ±SEM, p < 0.05 vs saline) was 16.8 ± 0.9 mg. The “Lesion DNA” value ([6]; 15 days after surgery, sectioned tendon, 20 μg./kg. twice daily at lesion, ±SEM, NS vs saline) was 556 ± 23 µg, the Lesion dry wt ([6]; 15 days after surgery, sectioned tendon, 20 μg./kg. twice daily at lesion, ±SEM, p < 0.001 vs saline) was 53.3 ± 2.8 mg and the “Apparent increase in DNA content of urogastrone-treated lesions” value ([6]; day 15, not significantly different from the control value) was 8%. For the same substance, the “Increase in collagen over saline-injected controls” value ([6]; fifteen days after surgery) was 28%, the “Increase in dry weight over saline-injected controls” value ([6]; fifteen days after surgery) was 24% and the “Increase in collagen content of scar tissue compared with saline-injected controls” value [6, 10] was 61%. For the same substance, the “Increase in dry weight of scar tissue compared with saline-injected controls” value [6, 10] was 38%.
